According to PubChem BioAssay (NCI):
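Compound exposure: 48 hours, 5 concentrations, 96-well plates. GI50 is the concentration that inhibits growth by half. TGI is the concentration that stops growth completely.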

Key:
Experiment in all cases: NCI tumour cell line growth inhibition, 48 h
TK-10 renal = test system: TK-10 renal
COLO 205 colon = test system: COLO 205 colon
NCI/ADR-RES ovarian = test system: NCI/ADR-RES ovarian
UO-31 renal = test system: UO-31 renal
HCC-2998 colon = test system: HCC-2998 colon
786-0 renal = test system: 786-0 renal
HOP-62 NSCLC = test system: HOP-62 NSCLC
MDA-MB-231 breast = test system: MDA-MB-231 breast
SF-295 CNS = test system: SF-295 CNS
NCI-H226 lung = test system: NCI-H226 lung
SNB-19 CNS = test system: SNB-19 CNS
T-47D breast = test system: T-47D breast
OVCAR-8 ovarian = test system: OVCAR-8 ovarian
KM12 colon = test system: KM12 colon
RPMI-8226 leukemia = test system: RPMI-8226 leukemia
MALME-3M melanoma = test system: MALME-3M melanoma
A549 NSCLC = test system: A549 NSCLC
NCI-H23 lung = test system: NCI-H23 lung
CAKI-1 renal = test system: CAKI-1 renal
SN12C renal = test system: SN12C renal
SW-620 colon = test system: SW-620 colon
SF-268 CNS = test system: SF-268 CNS
EKVX NSCLC = test system: EKVX NSCLC
UACC-62 melanoma = test system: UACC-62 melanoma
MDA-MB-435 = test system: MDA-MB-435
SK-MEL-2 melanoma = test system: SK-MEL-2 melanoma
SK-MEL-5 melanoma = test system: SK-MEL-5 melanoma
OVCAR-4 ovarian = test system: OVCAR-4 ovarian
MOLT-4 leukemia = test system: MOLT-4 leukemia
A498 renal = test system: A498 renal

## C#C[C@]1(O)CC[C@H]2[C@@H]3CC=C4c5sc(Nc6ccc(N(C)C)cc6)nc5CC[C@]4(C)[C@H]3CC[C@@]21C
TK-10 renal
  GI50: 7560 nM
  TGI: 33300 nM
COLO 205 colon
  GI50: 2620 nM
  TGI: 6820 nM
NCI/ADR-RES ovarian
  GI50: 2540 nM
  TGI: 10700 nM
UO-31 renal
  GI50: 1500 nM
  TGI: 5210 nM
HCC-2998 colon
  GI50: 3230 nM
  TGI: 7820 nM
786-0 renal
  GI50: 647 nM
  TGI: 5340 nM
HOP-62 NSCLC
  GI50: 1890 nM
  TGI: 7380 nM
MDA-MB-231 breast
  GI50: 1270 nM
  TGI: 3330 nM
SF-295 CNS
  GI50: 225 nM
  TGI: 557 nM
NCI-H226 lung
  GI50: 2410 nM
  TGI: 10900 nM
SNB-19 CNS
  GI50: 1490 nM
  TGI: 6010 nM
T-47D breast
  GI50: 2640 nM
  TGI: 15100 nM
OVCAR-8 ovarian
  GI50: 2990 nM
  TGI: 11000 nM
KM12 colon
  GI50: 2150 nM
  TGI: 7110 nM
RPMI-8226 leukemia
  GI50: 248 nM
  TGI: 2200 nM
MALME-3M melanoma
  GI50: 858 nM
  TGI: 2900 nM
A549 NSCLC
  GI50: 2500 nM
  TGI: 12500 nM
NCI-H23 lung
  GI50: 1330 nM
  TGI: 5140 nM
CAKI-1 renal
  GI50: 1740 nM
  TGI: > 23600 nM
SN12C renal
  GI50: 2630 nM
  TGI: 7840 nM
SW-620 colon
  GI50: 1100 nM
  TGI: 3470 nM
SF-268 CNS
  GI50: 1870 nM
  TGI: 10600 nM
EKVX NSCLC
  GI50: 1590 nM
  TGI: 6490 nM
UACC-62 melanoma
  GI50: 1270 nM
  TGI: 3010 nM
MDA-MB-435
  GI50: 1660 nM
  TGI: 7370 nM
SK-MEL-2 melanoma
  GI50: 1460 nM
  TGI: 4320 nM
SK-MEL-5 melanoma
  GI50: 1490 nM
  TGI: 2920 nM
OVCAR-4 ovarian
  GI50: 2540 nM
MOLT-4 leukemia
  GI50: 374 nM
  TGI: 5530 nM
A498 renal
  GI50: 1880 nM
  TGI: 4180 nM
